Results: ChEMBL document CHEMBL2046331, “Lead optimization of a sulfonylurea-based piperazine pyridazinone series of glucan synthase inhibitors” (Bioorg Med Chem Lett, 2012)
In brackets after ≈: the same amount, converted by molar mass. Activity calls are given as the source filed them. The rule behind the calls is not given here.

What was measured:
Candida albicans [1] = assay: Antifungal activity against Candida albicans C693 by broth dilution method; format: functional; conditions: read-out: MIC100
Nakaseomyces glabratus = assay: Antifungal activity against Candida glabrata C624 by broth dilution method; format: functional; conditions: read-out: MIC100
Beta-1,3-glucan synthase = molecular target: T1, Beta-1,3-glucan synthase (Candida albicans, UniProt O13383); assay: Inhibition of glucan synthase in Candida albicans BWP17 membrane; format: cell membranes
T1 sequence (O13383 whole entry): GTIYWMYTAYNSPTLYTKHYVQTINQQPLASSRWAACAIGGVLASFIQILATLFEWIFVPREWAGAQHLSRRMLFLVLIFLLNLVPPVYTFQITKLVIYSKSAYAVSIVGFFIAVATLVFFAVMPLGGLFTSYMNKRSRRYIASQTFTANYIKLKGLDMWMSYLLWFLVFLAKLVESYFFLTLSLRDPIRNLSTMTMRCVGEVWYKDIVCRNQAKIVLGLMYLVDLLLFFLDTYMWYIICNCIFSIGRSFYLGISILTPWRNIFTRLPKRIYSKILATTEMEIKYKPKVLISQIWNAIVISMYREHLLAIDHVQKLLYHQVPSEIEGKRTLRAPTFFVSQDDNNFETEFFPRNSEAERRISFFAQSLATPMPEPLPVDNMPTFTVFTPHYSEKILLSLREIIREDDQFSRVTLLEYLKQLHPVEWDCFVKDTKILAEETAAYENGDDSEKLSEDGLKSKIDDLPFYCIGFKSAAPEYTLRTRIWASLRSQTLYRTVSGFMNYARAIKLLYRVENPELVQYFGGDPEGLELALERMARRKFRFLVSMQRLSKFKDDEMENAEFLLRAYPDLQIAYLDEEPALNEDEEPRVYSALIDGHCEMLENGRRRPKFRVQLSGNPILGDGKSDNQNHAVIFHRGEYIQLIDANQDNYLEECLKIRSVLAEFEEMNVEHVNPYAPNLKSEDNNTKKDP

Candida albicans [2] = assay: Antifungal activity against Candida albicans C43 by broth dilution method; format: functional; conditions: read-out: MIC100
Candida albicans [3] = assay: Antifungal activity against Candida albicans C43 by broth dilution method in presence of 25% human serum; format: functional; conditions: read-out: MIC100
[4] = Clearance in rat hepatocytes assessed per million cells; format: ADME, cell-based, Hepatocyte; conditions: read-out: CLH
Aspergillus fumigatus = assay: Antifungal activity against Aspergillus fumigatus ND158 by broth dilution method; format: functional; conditions: read-out: MEC
Candida albicans [5] = assay: Antifungal activity against Candida albicans C375 by broth dilution method; format: functional; conditions: read-out: MIC100
Candida albicans [6] = assay: Antifungal activity against Candida albicans C43 systemically infected in mouse assessed as reduction in fungal burden in kidney at 100 mg/kg, ip administered daily for 4 days relative to caspofungin; format: functional, organism-based; parameters: dose 100 mg/kg
Candida albicans [7] = assay: Antifungal activity against Candida albicans C43 systemically infected in mouse assessed as reduction in fungal burden in kidney at 100 mg/kg, ip administered daily for 4 days relative to vehicle treated control; format: functional, organism-based; parameters: dose 100 mg/kg
[8] = AUC (0 to 6 hrs) in rat at 10 mg/kg, po; format: ADME, organism-based; parameters: time < 6 hr, dose 10 mg/kg, route oral; conditions: plasma
[9] = Clearance in human hepatocytes assessed per million cells; format: ADME, cell-based, Hepatocyte; conditions: read-out: CLH

MIC (Candida albicans [1]) [µg/mL] | MIC (Nakaseomyces glabratus) [µg/mL] | IC50 (Beta-1,3-glucan synthase) [nM] | MIC (Candida albicans [2]) [µg/mL] | MIC (Candida albicans [3]) [µg/mL] | hepatocyte CLint [4] [µL/min/1e6 cells] | MIC (Candida albicans [5]) [µg/mL] | AUC(0-t) at 6 h [8] [ng·h/mL] | hepatocyte CLint [9] [µL/min/1e6 cells] | Structure (SMILES) | minimal effective concentration (Aspergillus fumigatus) [µg/mL] | Activity (Candida albicans [6]) | Activity (Candida albicans [7])
10 (≈ 19.5 µM) | 0.39 (≈ 0.762 µM) | 1450 | – | – | – | – | – | – | CC(C)N(C)S(=O)(=O)N1CCN(/C(C=N)=C(\OC2CCCC2)C(=O)Nc2cccc(Cl)c2)CC1 | – | – | –
0.06 (≈ 0.104 µM) | 0.13 (≈ 0.224 µM) | 111 | 0.13 (≈ 0.224 µM) | 1.04 | 12.7 | 0.52 (≈ 0.898 µM) | – | – | CC1(CO/C(C(=O)Nc2cccc(Cl)c2)=C(/C=N)N2CCN(S(=O)(=O)NCc3ccc(N)c(F)c3)CC2)CC1 | 1.04 | – | –
6.25 (≈ 12.2 µM) | 0.2 (≈ 0.391 µM) | 625 | – | – | – | – | – | – | CCN(CC)S(=O)(=O)N1CCN(/C(C=N)=C(\OC2CCCC2)C(=O)Nc2cccc(Cl)c2)CC1 | – | – | –
1.04 (≈ 1.9 µM) | 2.08 (≈ 3.8 µM) | 201 | – | – | – | – | – | – | CC1(CO/C(C(=O)Nc2cccc(Cl)c2)=C(/C=N)N2CCN(S(=O)(=O)NCc3cccnc3)CC2)CC1 | – | – | –
6.25 (≈ 12.9 µM) | 0.1 (≈ 0.207 µM) | 1900 | – | – | – | – | – | – | CN(C)S(=O)(=O)N1CCN(/C(C=N)=C(\OC2CCCC2)C(=O)Nc2cccc(Cl)c2)CC1 | – | – | –
0.52 (≈ 0.88 µM) | 0.52 (≈ 0.88 µM) | 157 | 1.04 (≈ 1.76 µM) | 4.17 | 12.6 | 4.17 (≈ 7.05 µM) | 860 | – | COc1cc(CNS(=O)(=O)N2CCN(/C(C=N)=C(\OCC3(C)CC3)C(=O)Nc3cccc(Cl)c3)CC2)ccc1N | 4.17 | inactive | inactive
0.52 (≈ 0.861 µM) | 0.13 (≈ 0.215 µM) | 530 | – | – | – | – | – | – | COC(=O)c1ccc(CNS(=O)(=O)N2CCN(/C(C=N)=C(\OCC3(C)CC3)C(=O)Nc3cccc(Cl)c3)CC2)cc1 | – | – | –
1.04 (≈ 1.81 µM) | 1.04 (≈ 1.81 µM) | 522 | 4.17 (≈ 7.25 µM) | – | – | 8.35 (≈ 14.5 µM) | 1300 | – | CC(NS(=O)(=O)N1CCN(/C(C=N)=C(\OCC2(C)CC2)C(=O)Nc2cccc(Cl)c2)CC1)c1cccc(N)c1 (stereo not drawn) | 16.7 | – | –
2.08 (≈ 3.35 µM) | 0.52 (≈ 0.837 µM) | 1300 | – | – | – | – | – | – | CC1(CO/C(C(=O)Nc2cccc(Cl)c2)=C(/C=N)N2CCN(S(=O)(=O)NCc3nc4cc(Cl)ccc4o3)CC2)CC1 | – | – | –
– | – | – | – | – | – | – | 2580 | – | Cc1ccc(CNS(=O)(=O)N2CCN(/C(C=N)=C(\OC3CCC(F)C3)C(=O)Nc3cc(F)cc(F)c3)CC2)cc1N (mixture of isomers) | – | – | –
0.26 (≈ 0.452 µM) | 0.26 (≈ 0.452 µM) | 125 | 0.52 (≈ 0.904 µM) | – | – | 2.08 (≈ 3.62 µM) | 1410 | 19.6 | Cc1ccc(CNS(=O)(=O)N2CCN(/C(C=N)=C(\OCC3(C)CC3)C(=O)Nc3cccc(Cl)c3)CC2)cc1N | 1.04 | – | –
> 33 | 16.7 (≈ 36.6 µM) | 42100 | – | – | – | – | – | – | N=C/C(=C(/OC1CCCC1)C(=O)Nc1cccc(Cl)c1)N1CCN(S(N)(=O)=O)CC1 | – | – | –
0.26 (≈ 0.429 µM) | 0.06 (≈ 0.099 µM) | 297 | – | – | – | – | – | – | COc1ccc(CNS(=O)(=O)N2CCN(/C(C=N)=C(\OCC3(C)CC3)C(=O)Nc3cccc(Cl)c3)CC2)cc1OC | – | – | –
0.03 (≈ 0.0549 µM) | < 0.02 | 87.9 | – | – | – | – | – | – | N=C/C(=C(/OC1CCCC1)C(=O)Nc1cccc(Cl)c1)N1CCN(S(=O)(=O)NCc2ccccc2)CC1 | – | – | –
8.35 (≈ 14.9 µM) | 2.08 (≈ 3.7 µM) | 409 | 16.7 (≈ 29.7 µM) | – | – | > 33 | 50 | – | CC1(CO/C(C(=O)Nc2cccc(Cl)c2)=C(/C=N)N2CCN(S(=O)(=O)NCc3ccnc(N)c3)CC2)CC1 | 16.7 | – | –
0.52 (≈ 0.843 µM) | 0.06 (≈ 0.0972 µM) | 97.2 | – | – | – | – | – | – | Cc1nc2ccc(CNS(=O)(=O)N3CCN(/C(C=N)=C(\OCC4(C)CC4)C(=O)Nc4cccc(Cl)c4)CC3)cc2s1 | – | – | –
25 (≈ 47.5 µM) | 0.39 (≈ 0.741 µM) | 2870 | – | – | – | – | – | – | N=C/C(=C(/OC1CCCC1)C(=O)Nc1cccc(Cl)c1)N1CCN(S(=O)(=O)N2CCOCC2)CC1 | – | – | –
0.52 (≈ 0.898 µM) | 0.52 (≈ 0.898 µM) | 297 | 2.08 (≈ 3.59 µM) | – | – | 4.17 (≈ 7.2 µM) | – | – | CC1(CO/C(C(=O)Nc2cccc(Cl)c2)=C(/C=N)N2CCN(S(=O)(=O)NCc3ccc(F)c(N)c3)CC2)CC1 | 2.08 | – | –
0.52 (≈ 0.95 µM) | 2.08 (≈ 3.8 µM) | 91.4 | – | – | – | – | – | – | CC1(CO/C(C(=O)Nc2cccc(Cl)c2)=C(/C=N)N2CCN(S(=O)(=O)NCc3ccncc3)CC2)CC1 | – | – | –
0.26 (≈ 0.44 µM) | 0.52 (≈ 0.88 µM) | 237 | 0.52 (≈ 0.88 µM) | 2.08 | 15 | 4.17 (≈ 7.05 µM) | 440 | – | COc1ccc(CNS(=O)(=O)N2CCN(/C(C=N)=C(\OCC3(C)CC3)C(=O)Nc3cccc(Cl)c3)CC2)cc1N | 4.17 | – | –
> 25 | 0.16 (≈ 0.301 µM) | 117 | – | – | – | – | – | – | N=C/C(=C(/OC1CCCC1)C(=O)Nc1cccc(Cl)c1)N1CCN(S(=O)(=O)Nc2ccccc2)CC1 | – | – | –
0.52 (≈ 1.04 µM) | 0.03 (≈ 0.0602 µM) | 361 | – | – | – | – | – | – | CC(C)NS(=O)(=O)N1CCN(/C(C=N)=C(\OC2CCCC2)C(=O)Nc2cccc(Cl)c2)CC1 | – | – | –
0.26 (≈ 0.431 µM) | 0.26 (≈ 0.431 µM) | 398 | – | – | – | – | – | – | CC1(CO/C(C(=O)Nc2cccc(Cl)c2)=C(/C=N)N2CCN(S(=O)(=O)NCc3nc4ccccc4s3)CC2)CC1 | – | – | –
> 33 | 2.08 (≈ 3.81 µM) | 5310 | – | – | – | – | – | – | CC1(CO/C(C(=O)Nc2cccc(Cl)c2)=C(/C=N)N2CCN(S(=O)(=O)NCc3ccccc3)CC2)CC1 | – | – | –
0.26 (≈ 0.452 µM) | 0.52 (≈ 0.904 µM) | 108 | 0.52 (≈ 0.904 µM) | – | – | 2.08 (≈ 3.62 µM) | 900 | 13.4 | Cc1cc(CNS(=O)(=O)N2CCN(/C(C=N)=C(\OCC3(C)CC3)C(=O)Nc3cccc(Cl)c3)CC2)ccc1N | 2.08 | – | –
